Data reported in patent publication US10172868B2, “Substituted quinazolines for inhibiting kinase activity” (NeuPharma, Inc., priority 2013, dated 2019).

Assays:
EGFR (ErbB1) = EGFR (ErbB1) (Homo sapiens (Human), UniProt P00533); test: Z'-LYTE kinase inhibition assay, EGFR; type: biochemical; settings: read-out: % inhibition against EGFR (Compound at 0.041 μM)
Experimental: Inhibitory activities of compounds against BTK, EGFR and EGFR mutants (EGFR L858R, EGFR T790M, EGFR L858R/T790M), FGFR1, FGFR2, JAK2, JAK3 and KDR were measured by Invitrogen using Z'-LYTE® Method as briefly described in the following. Test Compounds are screened in 1% DMSO (final) in the well. For 10 point titrations, 3-fold serial dilutions are conducted from the starting concentration. All ATP Solutions are diluted to a 4× working concentration in Kinase Buffer (50 mM HEPES pH 7.5, 0.01% BRIJ-35, 10 mM MgCl2, 1 mM EGTA). Peptide/Kinase Mixtures are diluted to a 2× working concentration in the appropriate Kinase Buffers as described below. (i) Peptide/Kinase Mixtures for Measurement of EGFR (ErbB1): The 2×EGFR (ErbB1)/[…] mixture is prepared in 50 mM HEPES pH 7.5, 0.01% BRIJ-35, 10 mM MgCl2. 4 mM MnCl2, 1 mM EGTA, 2 mM DTT. The final 10 μL Kinase Reaction consists of 1.1-5.25 ng EGFR (ErbB1) and 2 μM […] in 50 mM HEPES pH 7.5, 0.01% BRIJ-35, 10 mM MgCl2, 2 mM MnCl2. 1 mM EGTA, 1 mM DTT. After the 1 hour Kinase Reaction incubation, 5 μL of a 1:64 dilution of Development Reagent B is added. Reaction starts by 30-second shaking of mixture consisting of 2.5 μL 4× test compound, […] 2× kinase reaction mixture and 2.5 μL 4×ATP Solution on Bar-coded Corning, low volume NBS, black 384-well plate (Corning Cat. #3676). Then the mixture is incubated for 60-minute at room temperature for the kinase reaction, followed by addition of 5 μL of a 1:1024 dilution of development reagent A and 30-second plate shake. The mixture is then incubated for another 60-minute at room temperature for development reaction. Finally fluorescence is read by plate reader. To determine IC50 of a compound against EGFR, EGFR mutant and other kinases, a series of concentrations of the compound were tested for the inhibition.

H1975 cells = test: Inhibition of cancer cell growth, MTT assay, H1975; settings: Homo sapiens, NCI-H1975, 72 h, read-out: IC50 in H1975 cells
EGFR (ErbB1) T790M L858R = EGFR (ErbB1) T790M L858R (Homo sapiens (Human), UniProt P00533, L858R/T790M); test: Z'-LYTE kinase inhibition assay, EGFR L858R/T790M; type: biochemical; settings: for inhibition at 0.0137 µM: read-out: % inhibition against EGFR L858R/T790M (Compound at 0.0137 μM); for IC50: read-out: IC50 against EGFR L858R/T790M
Experimental: Inhibitory activities of compounds against BTK, EGFR and EGFR mutants (EGFR L858R, EGFR T790M, EGFR L858R/T790M), FGFR1, FGFR2, JAK2, JAK3 and KDR were measured by Invitrogen using Z'-LYTE® Method as briefly described in the following. Test Compounds are screened in 1% DMSO (final) in the well. For 10 point titrations, 3-fold serial dilutions are conducted from the starting concentration. All ATP Solutions are diluted to a 4× working concentration in Kinase Buffer (50 mM HEPES pH 7.5, 0.01% BRIJ-35, 10 mM MgCl2, 1 mM EGTA). Peptide/Kinase Mixtures are diluted to a 2× working concentration in the appropriate Kinase Buffers as described below. (iv) Peptide/Kinase Mixtures for Measurement of EGFR (ErbB1) T790M L858R: The 2×EGFR (ErbB1) […] mixture is prepared in 50 mM HEPES pH 6.5, 0.01% BRIJ-35, 10 mM MgCl2, 1 mM EGTA, 0.02% NaN3. […] After the 1 hour Kinase Reaction incubation, 5 μL of a 1:64 dilution of Development Reagent B is added. Reaction starts by 30-second shaking of mixture consisting of 2.5 μL 4× test compound, […] 2× kinase reaction mixture and 2.5 μL 4×ATP Solution on Bar-coded Corning, low volume NBS, black 384-well plate (Corning Cat. #3676). Then the mixture is incubated for 60-minute at room temperature for the kinase reaction, followed by addition of 5 μL of a 1:1024 dilution of development reagent A and 30-second plate shake. The mixture is then incubated for another 60-minute at room temperature for development reaction. Finally fluorescence is read by plate reader. To determine IC50 of a compound against EGFR, EGFR mutant and other kinases, a series of concentrations of the compound were tested for the inhibition.

Chain of EGFR (ErbB1) (P00533 25-1210): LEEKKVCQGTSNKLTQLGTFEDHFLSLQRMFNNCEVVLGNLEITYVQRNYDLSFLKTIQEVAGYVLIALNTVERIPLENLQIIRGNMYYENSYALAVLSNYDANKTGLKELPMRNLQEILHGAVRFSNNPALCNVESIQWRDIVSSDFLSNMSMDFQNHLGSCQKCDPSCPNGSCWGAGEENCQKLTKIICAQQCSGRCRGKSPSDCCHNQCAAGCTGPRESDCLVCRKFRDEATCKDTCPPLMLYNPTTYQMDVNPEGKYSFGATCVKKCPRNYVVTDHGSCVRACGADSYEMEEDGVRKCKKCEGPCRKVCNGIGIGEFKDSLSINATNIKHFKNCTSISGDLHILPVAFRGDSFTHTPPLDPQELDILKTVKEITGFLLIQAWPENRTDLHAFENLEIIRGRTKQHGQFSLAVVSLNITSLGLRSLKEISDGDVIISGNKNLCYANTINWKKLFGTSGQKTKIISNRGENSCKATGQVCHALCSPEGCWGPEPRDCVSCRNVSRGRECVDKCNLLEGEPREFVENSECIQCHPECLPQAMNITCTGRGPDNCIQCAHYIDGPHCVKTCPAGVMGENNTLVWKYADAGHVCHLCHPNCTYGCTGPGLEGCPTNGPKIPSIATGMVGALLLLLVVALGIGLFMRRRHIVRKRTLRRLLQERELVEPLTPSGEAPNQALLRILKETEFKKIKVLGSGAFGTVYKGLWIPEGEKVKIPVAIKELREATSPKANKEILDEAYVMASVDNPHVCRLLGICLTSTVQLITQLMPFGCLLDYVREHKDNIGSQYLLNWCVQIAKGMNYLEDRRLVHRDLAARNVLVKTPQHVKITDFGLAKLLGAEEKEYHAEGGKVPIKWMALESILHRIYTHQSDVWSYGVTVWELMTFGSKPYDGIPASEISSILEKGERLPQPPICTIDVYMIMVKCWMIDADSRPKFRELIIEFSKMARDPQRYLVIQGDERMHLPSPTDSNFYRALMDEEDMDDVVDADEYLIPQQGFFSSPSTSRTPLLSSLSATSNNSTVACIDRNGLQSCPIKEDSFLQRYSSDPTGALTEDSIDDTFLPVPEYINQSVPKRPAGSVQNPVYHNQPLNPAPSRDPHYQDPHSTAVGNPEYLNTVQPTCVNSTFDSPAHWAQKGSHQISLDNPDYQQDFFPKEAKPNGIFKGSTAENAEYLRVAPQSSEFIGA
Chain of EGFR (ErbB1) T790M L858R (P00533 25-1210 T790M/L858R): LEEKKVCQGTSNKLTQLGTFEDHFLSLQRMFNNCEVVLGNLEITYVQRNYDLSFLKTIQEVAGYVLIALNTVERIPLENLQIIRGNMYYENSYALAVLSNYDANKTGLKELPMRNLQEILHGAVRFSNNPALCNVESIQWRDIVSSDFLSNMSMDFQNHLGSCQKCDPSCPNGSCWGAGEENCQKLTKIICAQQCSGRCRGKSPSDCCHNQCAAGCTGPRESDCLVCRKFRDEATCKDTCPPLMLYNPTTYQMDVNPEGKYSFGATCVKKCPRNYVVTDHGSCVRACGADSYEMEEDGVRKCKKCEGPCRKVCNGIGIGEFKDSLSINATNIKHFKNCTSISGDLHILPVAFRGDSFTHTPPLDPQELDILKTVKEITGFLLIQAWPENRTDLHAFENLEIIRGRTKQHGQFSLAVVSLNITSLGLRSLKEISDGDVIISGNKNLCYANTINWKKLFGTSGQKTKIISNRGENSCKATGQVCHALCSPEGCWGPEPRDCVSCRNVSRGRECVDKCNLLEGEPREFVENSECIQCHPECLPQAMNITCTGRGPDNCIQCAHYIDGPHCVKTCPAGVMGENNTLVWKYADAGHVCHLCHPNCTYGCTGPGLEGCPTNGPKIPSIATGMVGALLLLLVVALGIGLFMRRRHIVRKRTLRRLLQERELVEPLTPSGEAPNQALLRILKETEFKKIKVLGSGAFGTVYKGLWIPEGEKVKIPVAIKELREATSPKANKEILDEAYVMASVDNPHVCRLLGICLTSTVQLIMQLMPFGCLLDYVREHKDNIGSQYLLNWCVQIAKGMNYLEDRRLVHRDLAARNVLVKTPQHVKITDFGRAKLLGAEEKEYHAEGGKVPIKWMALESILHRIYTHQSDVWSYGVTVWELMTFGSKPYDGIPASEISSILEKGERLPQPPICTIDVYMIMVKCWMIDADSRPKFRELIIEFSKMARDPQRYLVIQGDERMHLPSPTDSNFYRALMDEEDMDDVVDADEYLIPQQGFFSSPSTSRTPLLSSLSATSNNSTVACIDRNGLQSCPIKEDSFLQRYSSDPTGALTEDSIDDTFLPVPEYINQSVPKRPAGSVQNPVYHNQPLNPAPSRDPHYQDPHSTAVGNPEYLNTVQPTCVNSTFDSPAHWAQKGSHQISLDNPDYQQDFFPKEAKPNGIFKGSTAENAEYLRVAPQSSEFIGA

## CCC(=O)Nc1cccc(-c2c(C)ccc3cnc(Nc4ccc(N5CCN(C)CC5)cc4)nc23)c1 [Example C042, N-(3-(7-methyl-2-((4-(4-methylpiperazin-1-yl)phenyl)amino)quinazolin-8-yl)phenyl)propionamide]
EGFR (ErbB1)
  inhibition at 0.041 µM: > 50%
H1975 cells
  IC50: > 500 nM
EGFR (ErbB1) T790M L858R
  inhibition at 0.0137 µM: < 50%

## CC(=O)N1CCN(c2ccc(Nc3ncc4cccc(-c5cccc(NC(=O)/C=C/CN(C)C)c5)c4n3)cc2)CC1 [Example C050, (E)-N-(3-(2-((4-(4-acetylpiperazin-1-yl)phenyl)amino)quinazolin-8-yl)phenyl)-4-(dimethylamino)but-2-enamide]
EGFR (ErbB1)
  inhibition at 0.041 µM: < 50%
H1975 cells
  IC50: > 500 nM
EGFR (ErbB1) T790M L858R
  inhibition at 0.0137 µM: > 50%

## CN(C)C/C=C/C(=O)Nc1cccc(-c2cccc3cnc(Nc4ccc(N5CCN(C)CC5)cc4)nc23)c1 [Example C052, (E)-4-(dimethylamino)-N-(3-(2-((4-(4-methylpiperazin-1-yl)phenyl)amino)quinazolin-8-yl)phenyl)but-2-enamide]
EGFR (ErbB1)
  inhibition at 0.041 µM: < 50%
H1975 cells
  IC50: 100 to 500 nM
EGFR (ErbB1) T790M L858R
  inhibition at 0.0137 µM: > 50%

## CN(C)C/C=C/C(=O)Nc1cccc(-c2cccc3cnc(Nc4ccc(N5CCN(C)CC5)cc4)nc23)c1F [Example C062, (E)-4-(dimethylamino)-N-(2-fluoro-3-(2-((4-(4-methylpiperazin-1-yl)phenyl)amino)quinazolin-8-yl)phenyl)but-2-enamide]
EGFR (ErbB1)
  inhibition at 0.041 µM: > 50%
H1975 cells
  IC50: 100 to 500 nM
EGFR (ErbB1) T790M L858R
  inhibition at 0.0137 µM: > 50%

## C=CC(=O)Nc1cccc(-c2cccc3cnc(Nc4ccc(N(C)CCF)cc4)nc23)c1 [Example C064, N-(3-(2-((4-((2-fluoroethyl)(methyl)amino)phenyl)amino)quinazolin-8-yl)phenyl)acrylamide]
EGFR (ErbB1)
  inhibition at 0.041 µM: < 50%
H1975 cells
  IC50: > 500 nM
EGFR (ErbB1) T790M L858R
  inhibition at 0.0137 µM: < 50%

## C=CC(=O)Nc1cccc(-c2cccc3cnc(Nc4ccc(N(C)CCF)cc4)nc23)c1F [Example C065, N-(2-fluoro-3-(2-((4-((2-fluoroethyl)(methyl)amino)phenyl)amino)quinazolin-8-yl)phenyl)acrylamide]
EGFR (ErbB1)
  inhibition at 0.041 µM: < 50%
H1975 cells
  IC50: 100 to 500 nM
EGFR (ErbB1) T790M L858R
  inhibition at 0.0137 µM: < 50%

## C=CC(=O)Nc1cccc(-c2cccc3cnc(Nc4ccc(NCCO)cc4)nc23)c1 [Example C066, N-(3-(2-((4-((2-hydroxyethyl)amino)phenyl)amino)quinazolin-8-yl)phenyl)acrylamide]
EGFR (ErbB1)
  inhibition at 0.041 µM: < 50%
H1975 cells
  IC50: > 500 nM
EGFR (ErbB1) T790M L858R
  inhibition at 0.0137 µM: < 50%

## C=CC(=O)Nc1ccc(F)c(-c2cccc3cnc(Nc4ccc(N5CCN(C)CC5)cc4)nc23)c1 [Example C067, N-(4-fluoro-3-(2-((4-(4-methylpiperazin-1-yl)phenyl)amino)quinazolin-8-yl)phenyl)acrylamide]
EGFR (ErbB1)
  inhibition at 0.041 µM: > 50%
H1975 cells
  IC50: < 100 nM
EGFR (ErbB1) T790M L858R
  inhibition at 0.0137 µM: > 50%
  IC50: < 100 nM

## C=CC(=O)N1CCN(c2cccc3cnc(Nc4ccc(N5CCN(C)CC5)cc4)nc23)CC1 [Example C070, 1-(4-(2-((4-(4-methylpiperazin-1-yl)phenyl)amino)quinazolin-8-yl)piperazin-1-yl)prop-2-en-1-one]
EGFR (ErbB1)
  inhibition at 0.041 µM: < 50%
H1975 cells
  IC50: > 500 nM
EGFR (ErbB1) T790M L858R
  inhibition at 0.0137 µM: < 50%

## C=CC(=O)N1CCC=C(c2cccc3cnc(Nc4ccc(N5CCN(C)CC5)cc4)nc23)C1 [Example C071, 1-(3-(2-((4-(4-methylpiperazin-1-yl)phenyl)amino)quinazolin-8-yl)-5,6-dihydropyridin-1(2H)-yl)prop-2-en-1-one]
EGFR (ErbB1)
  inhibition at 0.041 µM: < 50%
H1975 cells
  IC50: > 500 nM
EGFR (ErbB1) T790M L858R
  inhibition at 0.0137 µM: < 50%

## C=CC(=O)Nc1ccc(Cl)c(-c2cccc3cnc(Nc4ccc(N5CCN(C)CC5)cc4)nc23)c1 [Example C073, N-(4-chloro-3-(2-((4-(4-methylpiperazin-1-yl)phenyl)amino)quinazolin-8-yl)phenyl)acrylamide]
EGFR (ErbB1)
  inhibition at 0.041 µM: < 50%
H1975 cells
  IC50: 100 to 500 nM
EGFR (ErbB1) T790M L858R
  inhibition at 0.0137 µM: > 50%

## C=CC(=O)Nc1cccc(-c2cccc3cnc(Nc4ccc(N5CCN(C(=O)OC)CC5)cc4)nc23)c1 [Example C076, methyl 4-(4-((8-(3-acrylamidophenyl)quinazolin-2-yl)amino)phenyl)piperazine-1-carboxylate]
EGFR (ErbB1)
  inhibition at 0.041 µM: < 50%
H1975 cells
  IC50: > 500 nM
EGFR (ErbB1) T790M L858R
  inhibition at 0.0137 µM: < 50%

## C=CC(=O)Nc1cccc(-c2cccc3cnc(Nc4ccc(N5CCN(C)C(CO)C5)cc4)nc23)c1 (stereo not shown) [Example C077, N-(3-(2-((4-(3-(hydroxymethyl)-4-methylpiperazin-1-yl)phenyl)amino)quinazolin-8-yl)phenyl)acrylamide]
EGFR (ErbB1)
  inhibition at 0.041 µM: < 50%
H1975 cells
  IC50: < 100 nM
EGFR (ErbB1) T790M L858R
  inhibition at 0.0137 µM: > 50%
  IC50: < 100 nM

## C=CC(=O)Nc1cccc(-c2cccc3cnc(Nc4cnc(N5CCN(C)CC5)c(Cl)c4)nc23)c1 [Example C081, N-(3-(2-((5-chloro-6-(4-methylpiperazin-1-yl)pyridin-3-yl)amino)quinazolin-8-yl)phenyl)acrylamide]
EGFR (ErbB1)
  inhibition at 0.041 µM: < 50%
H1975 cells
  IC50: 100 to 500 nM
EGFR (ErbB1) T790M L858R
  inhibition at 0.0137 µM: > 50%
  IC50: < 100 nM

## C=CC(=O)Nc1cccc(-c2cccc3cnc(Nc4ccc(N5CCN(CCO)CC5)c(F)c4)nc23)c1 [Example C142, N-(3-(2-((3-fluoro-4-(4-(2-hydroxyethyl)piperazin-1-yl)phenyl)amino)quinazolin-8-yl)phenyl)acrylamide]
H1975 cells
  IC50: < 100 nM

## C=CC(=O)Nc1cccc(-c2cccc3cnc(Nc4ccc(OC5CCN(CCF)CC5)cc4F)nc23)c1 [Example C157, N-(3-(2-((2-fluoro-4-((1-(2-fluoroethyl)piperidin-4-yl)oxy)phenyl)amino)quinazolin-8-yl)phenyl)acrylamide]
H1975 cells
  IC50: > 500 nM
EGFR (ErbB1) T790M L858R
  inhibition at 0.0137 µM: < 50%

## C=CC(=O)Nc1cccc(-c2cccc3cnc(Nc4ccc(-n5cccn5)cc4)nc23)c1 [Example C158, N-(3-(2-((4-(1H-pyrazol-1-yl)phenyl)amino)quinazolin-8-yl)phenyl)acrylamide]
H1975 cells
  IC50: 100 to 500 nM
EGFR (ErbB1) T790M L858R
  inhibition at 0.0137 µM: < 50%

## C=CC(=O)Nc1cccc(-c2cccc3cnc(Nc4ccc(-c5cn[nH]c5)cc4)nc23)c1 [Example C159, N-(3-(2-((4-(1H-pyrazol-4-yl)phenyl)amino)quinazolin-8-yl)phenyl)acrylamide]
H1975 cells
  IC50: > 500 nM
EGFR (ErbB1) T790M L858R
  inhibition at 0.0137 µM: < 50%

## C=CC(=O)Nc1cccc(-c2cccc3cnc(Nc4cc(F)c(N5CCN(C)CC5)cc4F)nc23)c1 [Example C160, N-(3-(2-((2,5-difluoro-4-(4-methylpiperazin-1-yl)phenyl)amino)quinazolin-8-yl)phenyl)acrylamide]
H1975 cells
  IC50: 100 to 500 nM
EGFR (ErbB1) T790M L858R
  inhibition at 0.0137 µM: < 50%

## C=CC(=O)Nc1cccc(-c2cccc3cnc(Nc4cc(F)c(N5CCN(CC(C)(C)O)CC5)cc4F)nc23)c1 [Example C163, N-(3-(2-((2,5-difluoro-4-(4-(2-hydroxy-2-methylpropyl)piperazin-1-yl)phenyl)amino)quinazolin-8-yl)phenyl)acrylamide]
H1975 cells
  IC50: 100 to 500 nM
